Measured values: patent US11161839B2, “2-quinolone derived inhibitors of BCL6” (Cancer Research Technology Limited, priority 2017, dated 2021)

Experiments:
[1] = target: human BCL6 BTB domain (Trx-6xHis-BCL6) (Homo sapiens (Human), UniProt P41182); assay: HTRF in vitro assay (BCL6 BTB domain / BCOR-AF633 peptide); format: binding
[2] = target: BCL6-NCOR2(SMRT) corepressor protein-protein interaction (Homo sapiens (Human), UniProt P41182); assay: NanoBRET cell assay in transfected HEK293T cells; format: cell-based; settings: further generated data (Table 2b); HEK293T cells, 6 hr; read-out: NanoBRET cell pIC50 (converted)
[3] = further generated data (Table 1b), 1 nM Trx-6xHis-BCL6, 0.5 nM anti-6xHis-Terbium cryptate
[4] = initially generated data (Table 1a), 10 nM Trx-6xHis-BCL6, 1 nM anti-6xHis-Terbium cryptate

Row | HTRF pIC50 [1, 3] | IC50 [2] [µM] | IC50 ([1]; further generated data (Table 1b), 1 nM Trx-6xHis-BCL6, 0.5 nM anti-6xHis-Terbium cryptate, read-out: HTRF pIC50 (converted)) [µM] | HTRF pIC50 [1, 4] | SMILES
1 | – | 6.76 | 0.38 | – | CNC(=O)c1cc(Nc2ccc3c(c2)c(NC2CCC2OC)cc(=O)n3C)c(C#N)c(Cl)n1 (racemic) [Example 23a, rac-6-chloro-5-cyano 4-((4-(((1R,2R)-2-methoxycyclobutyl)amino)-1-methyl-2-oxo-1,2-dihydroquinolin-6-yl)amino)-N-methylpicolinamide or rac-6-chloro-5-cyano-4-((4-(((1R,2S)-2-methoxycyclobutyl)amino)-1-methyl-2-oxo-1,2-dihydroquinolin-6-yl)amino)-N-methylpicolinamide]
2 | 6.38 | 9.33 | – | – | Cn1c(=O)cc(NC2(c3ncccn3)CCOC2)c2cc(Nc3ccnc(Cl)c3C#N)ccc21 (stereo not drawn) [Example 19i, 2-chloro-4-((1-methyl-2-oxo-4-((3-(pyrimidin-2-yl)tetrahydrofuran-3-yl)amino)-1,2-dihydroquinolin-6-yl)amino)nicotinonitrile]
3 | 6.58 | 1.55 | – | – | CC(Nc1cc(=O)n(C)c2ccc(Nc3cc(-n4cc(CCO)cn4)ncc3Cl)cc12)c1ncccn1 (stereo not drawn) [Example 15i, 6-((5-chloro-2-(4-(2-hydroxyethyl)-1H-pyrazol-1-yl)pyridin-4-yl)amino)-1-methyl-4-((1-(pyrimidin-2-yl)ethyl)amino)quinoline-2(1H)-one]
4 | 6.40 | 7.08 | – | – | CNC(=O)c1cc(Nc2ccc3c(c2)c(NC(C)c2ncccn2)cc(=O)n3C)c(C#N)c(C)n1 (stereo not drawn) [Example 18b, 5-cyano-N, 6-dimethyl-4-((1-methyl-2-oxo-4-((1-(pyrimidin-2-yl)ethyl)amino)-1,2-dihydroquinolin-6-yl)amino)picolinamide]
5 | 6.38 | 3.47 | – | – | CC(Nc1cc(=O)n(C)c2ccc(Nc3ccnc(Cl)c3C#N)cc12)c1cc2ccccc2cn1 (stereo not drawn) [Example 24e, 2-chloro-4-((4-((1-(isoquinolin-3-yl)ethyl)amino)-1-methyl-2-oxo-1,2-dihydroquinolin-6-yl)amino)nicotinonitrile]
6 | 6.40 | 2.95 | – | – | CCC(C)(COC)Nc1cc(=O)n(C)c2ccc(Nc3cc(C(=O)NC)nc(Cl)c3C#N)cc12 (stereo not drawn) [Example 19f, 6-chloro-5-cyano-4-((4-((1-methoxy-2-methylbutan-2-yl)amino)-1-methyl-2-oxo-1,2-dihydroquinolin-6-yl)amino)-N-methylpicolinamide]
7 | 6.49 | 4.79 | – | – | Cn1c(=O)cc(NC2(C#N)CC2)c2cc(Nc3ccnc(Cl)c3C#N)ccc21 [Example 24b, 2-chloro-4-((4-((1-cyanocyclopropyl)amino)-1-methyl-2-oxo-1,2-dihydroquinolin-6-yl)amino)nicotinonitrile]
8 | 6.99 | 5.25 | – | – | CC(Nc1cc(=O)n(C)c2ccc(Nc3cc(C(=O)N(C)C)nc(Cl)c3C#N)cc12)c1ncccn1 (stereo not drawn) [Example 19b]
9 | 6.18 | 4.9 | – | – | CC(Nc1cc(=O)n(C)c2ccc(Nc3nc(N4CC(C)(C#N)C4)ncc3Cl)cc12)c1ncccn1 (stereo not drawn) [Example 17j, 1-(5-chloro-4-((1-methyl-2-oxo-4-((11-(pyrimidin-2-yl)ethyl)amino)-1,2-dihydroquinoline-6-yl)amino)pyrimidin-2-yl)-3-methylazetidine-3-carbonitrile]
10 | 6.20 | 4.17 | – | – | CC(Nc1cc(=O)n(C)c2ccc(Nc3nc(N4CC5(CCOCC5)C4)ncc3Cl)cc12)c1ncccn1 (stereo not drawn) [Example 17h, 6-((5-chloro-2-(7-oxa-2-azaspiro[3.5]nonan-2-yl)pyrimidin-4-yl)amino)-1-methyl-4((1-(pyrimidin-2-yl)ethyl)amino)quinolin-2(1H)-one:formic acid (1:1)]
11 | 6.53 | 4.47 | – | – | C[C@@H](Nc1cc(=O)n(C)c2ncc(Nc3ccnc(Cl)c3C#N)cc12)C1CC1 [Example 24d, (R)-2-chloro-4-((5-((1-cyclopropylethyl)amino)-8-methyl-7-oxo-7,8-dihydro-1,8-naphthyridin-3-yl)amino)nicotinonitrile]
12 | 7.46 | 0.479 | – | – | CC(Nc1cc(=O)n(C)c2ccc(Nc3ccnc(Cl)c3C#N)cc12)c1ncc(-c2cccnc2)cn1 (stereo not drawn) [Example 20, 2-chloro-4-((1-methyl-2-oxo-4-((1-(5-(pyridin-3-yl)pyrimidin-2-yl)ethyl)amino)-1,2-dihydroquinolin-6-yl)amino)nicotinonitrile]

The next lines start with the compound.

Row | SMILES | HTRF pIC50 [1, 3] | IC50 [2] [µM] | IC50 ([1]; further generated data (Table 1b), 1 nM Trx-6xHis-BCL6, 0.5 nM anti-6xHis-Terbium cryptate, read-out: HTRF pIC50 (converted)) [µM] | HTRF pIC50 [1, 4]
13 | CC(Nc1cc(=O)n(CC2CC2)c2ccc(Nc3ccnc(Cl)c3Cl)cc12)c1ncccn1 (stereo not drawn) [Example 6g, 1-(cyclopropylmethyl)-6-[(2,3-dichloro-4-pyridyl)amino]-4-(1-pyrimidin-2-ylethylamino)quinolin-2-one] | 6.25 | 7.41 | – | –
14 | Cn1c(=O)cc(NC(C)(C)c2ncccn2)c2cc(Nc3ccnc(Cl)c3C#N)cnc21 [Example 1x, 2-chloro-4-[[8-methyl-5-[(1-methyl-1-pyrimidin-2-yl-ethyl)amino]-7-oxo-1,8-naphthyridin-3-yl]amino]pyridine-3-carbonitrile] | 7.20 | 1.58 | – | 6.68
15 | Cc1cc(C)n(-c2ncc(Cl)c(Nc3ccc4c(c3)c(NC(C)c3ncn(C)n3)cc(=O)n4C)n2)n1 (stereo not drawn) [Example 14b, 6-((5-chloro-2-(3,5-dimethyl-1H-pyrazol-1-yl)pyrimidin-4-yl)amino)-1-methyl-4-((1-(1-methyl-1H-1,2,4-triazol-3-yl)ethyl)amino)quinolin-2(1H)-one] | 6.64 | 8.32 | – | –
16 | C[C@@H](Nc1cc(=O)n(C)c2ccc(Nc3cc(C(=O)N4CCC4)nc(Cl)c3C#N)cc12)C1CC1 [Example 8c, (R)-6-(azetidine-1-carbonyl)-2-chloro-4-((4-((1-cyclopropylethyl)amino)-1-methyl-2-oxo-1,2-dihydroquinolin-6-yl)amino)nicotinonitrile] | 7.02 | 0.501 | – | –
17 | Cn1c(=O)cc(NC(C)(C)c2ncccn2)c2cc(Nc3nc(-n4ccc(C(F)(F)F)n4)ncc3Cl)ccc21 [Example 14d, 6-((5-chloro-2-(3-(trifluoromethyl)-1H-pyrazol-1-yl)pyrimidin-4-yl)amino)-1-methyl-4((2-(pyrimidin-2-yl)propan-2-yl)amino)quinolin-2(1H)-one] | 6.44 | 2.04 | – | –
18 | Cn1c(=O)cc(NC(C)(C)c2ncccn2)c2cc(Nc3cc(Cl)nc(Cl)c3Cl)ccc21 [Example 13, 1-methyl-4-((2-(pyrimidin-2-yl)propan-2-yl)amino)-6-((2,3,6-trichloropyridin-4-yl)amino)quinolin-2(1H)-one] | 6.66 | 1.7 | – | –
19 | COC[C@@H]1CCCN1C(=O)c1cc(Nc2ccc3c(c2)c(N[C@H](C)C2CC2)cc(=O)n3C)c(Cl)cn1 [Example 15a, 6-((5-Chloro-2-((S)-2-(methoxymethyl)pyrrolidine-1-carbonyl)pyridin-4-yl)amino)-4-(((R)-1-cyclopropylethyl)amino)-1-methylquinolin-2(1H)-one] | 6.59 | 2 | – | –
20 | C[C@@H](Nc1cc(=O)n(C)c2ccc(Nc3cc(-n4cc(CCO)cn4)ncc3Cl)cc12)C1CC1 [Example 15f, (R)-6-((5-chloro-2-(4-(2-hydroxyethyl)-1H-pyrazol-1-yl)pyridin-4-yl)amino)-4-((1-cyclopropylethyl)amino)-1-methylquinolin-2(1H)-one] | 6.58 | 2.29 | – | –
21 | C[C@@H]1CN(c2cnc(C(C)(C)Nc3cc(=O)n(C)c4ccc(Nc5ccnc(Cl)c5C#N)cc34)nc2)C[C@H](C)O1 [Example 7a, 2-Chloro-4-((4-((2-(5-((2R,6S)-2,6-dimethylmorpholino)pyrimidin-2-yl)propan-2-yl)amino)-1-methyl-2-oxo-1,2-dihydroquinolin-6-yl)amino)nicotinonitrile] | 7.91 | 0.347 | – | –
22 | Cc1cc(C(C)Nc2cc(=O)n(C)c3ccc(Nc4ccnc(Cl)c4C#N)cc23)no1 (stereo not drawn) [Example 1m, 2-chloro-4-[[1-methyl-4-[1-(5-methylisoxazol-3-yl)ethylamino]-2-oxo-6-quinolyl]amino]pyridine-3-carbonitrile] | 5.88 | 5.37 | – | 6.15
23 | CC(Nc1cc(=O)n(C)c2ccc(Nc3cc(N4C[C@@H](C)O[C@@H](C)C4)ncc3Cl)cc12)c1ncccn1 (stereo partly drawn) [Example 15e, 6-((5-chloro-2-((2S,6R)-2,6-dimethylmorpholino)pyridin-4-yl)amino)-1-methyl-4-((1-(pyrimidin-2-yl)ethyl)amino)quinolin-2(1H)-one] | 6.28 | 4.27 | – | –
24 | CC(Nc1cc(=O)n(C)c2ccc(Nc3cc(N4CCC(F)(F)CC4)ncc3Cl)cc12)c1ncccn1 (stereo not drawn) [Example 15h, 6-((5-chloro-2-(4,4-difluoropiperidin-1-yl)pyridin-4-yl)amino)-1-methyl-4-((1-(pyrimidin-2-yl)ethyl)amino)quinolin-2(1H)-one] | 6.21 | 6.92 | – | –
25 | CNC(=O)c1cc(Nc2ccc3c(c2)c(N[C@H](C)C2CC2)cc(=O)n3C)c(C#N)c(Cl)n1 [Example 10i, (R)-6-chloro-5-cyano-4-((4-((1-cyclopropylethyl)amino)-1-methyl-2-oxo-1,2-dihydroquinolin-6-yl)amino)-N-methylpicolinamide] | 6.96 | 1.78 | – | –
26 | CC(Nc1cc(=O)n(CCO)c2ccc(Nc3ccnc(Cl)c3C#N)cc12)c1ncccn1 (stereo not drawn) [Example 11j, 2-chloro-4-((1-(2-hydroxyethyl)-2-oxo-4-((1-(pyrimidin-2-yl)ethyl)amino)-1,2-dihydroquinolin-6-yl)amino)nicotinonitrile] | 6.83 | 11 | – | –
